Results published in ChEMBL document CHEMBL1201862, “PubChem BioAssay data set” (2004).
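1) Cells in 96-well plates. 2) Compound, 48 h, 5 concentrations. 3) Linear interpolation between surrounding doses. 4) Unreached endpoint = highest concentration. At the GI50, growth is halved.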 Active and inactive are the calls of the source. Rule as the data show it: active = GI50 up to about 1.1 µM and inactive = higher.

Columns and labels:
Assay in all cases: NCI tumour cell line growth inhibition, 48 h
[1] = tested on: 786-0
[2] = tested on: A498
[3] = tested on: A549
[4] = tested on: ACHN
[5] = tested on: BT-549
[6] = tested on: CAKI-1
[7] = tested on: CCRF-CEM
[8] = tested on: COLO 205
[9] = tested on: DU-145
[10] = tested on: EKVX
[11] = tested on: HCC 2998
[12] = tested on: HCT-116
[13] = tested on: HCT-15
[14] = tested on: HL-60
[15] = tested on: HOP-62
[16] = tested on: HOP-92
[17] = tested on: HT-29
[18] = tested on: Hs-578T
[19] = tested on: IGROV-1
[20] = tested on: K562
[21] = tested on: KM12
[22] = tested on: LOX IMVI
[23] = tested on: M14
[24] = tested on: MCF7
[25] = tested on: MDA-MB-231
[26] = tested on: MDA-MB-435
[27] = tested on: MDA-N
[28] = tested on: Malme-3M
[29] = tested on: NCI-H226
[30] = tested on: NCI-H23
[31] = tested on: NCI-H460
[32] = tested on: NCI-H522
[33] = tested on: NCI/ADR-RES
[34] = tested on: OVCAR-3
[35] = tested on: OVCAR-4
[36] = tested on: OVCAR-5
[37] = tested on: OVCAR-8
[38] = tested on: PC-3
[39] = tested on: RPMI-8226
[40] = tested on: RXF 393
[41] = tested on: SF-268
[42] = tested on: SF-295
[43] = tested on: SF-539
[44] = tested on: SK-MEL-28
[45] = tested on: SK-MEL-2
[46] = tested on: SK-MEL-5
[47] = tested on: SK-OV-3
[48] = tested on: SN12C
[49] = tested on: SNB-19
[50] = tested on: SNB-75
[51] = tested on: SR
[52] = tested on: SW-620
[53] = tested on: T47D
[54] = tested on: TK-10
[55] = tested on: U-251
[56] = tested on: UACC-257
[57] = tested on: UACC-62
[58] = tested on: UO-31

Measured: GI50

Cc1ccc2occ/c(=N\Nc3ccccc3)c2c1
inactive: [1] 21.2 µM | [2] 76.6 µM | [3] 57 µM | [4] > 100 µM | [5] > 100 µM | [6] 54 µM | [7] > 100 µM | [8] 41.1 µM | [9] 37.8 µM | [10] 18.6 µM | [11] > 100 µM | [12] 47.2 µM | [14] > 100 µM | [15] 32.6 µM | [16] 19.5 µM | [17] 23.9 µM | [18] 65.3 µM | [19] 7.83 µM | [20] 25.2 µM | [21] 12.7 µM | [22] 66.2 µM | [23] 43 µM | [24] 40.2 µM | [25] 88.5 µM | [26] 17.9 µM | [27] 65.9 µM | [28] 29.5 µM | [29] 29.9 µM | [30] 28.1 µM | [31] 56.9 µM | [32] 84.7 µM | [33] 39 µM | [34] 60.1 µM | [35] 13.2 µM | [36] 59.4 µM | [37] 72.9 µM | [38] 63.1 µM | [39] 25.1 µM | [40] 21.8 µM | [41] > 100 µM | [42] 32.2 µM | [43] > 100 µM | [44] 62.2 µM | [45] > 100 µM | [46] 41.5 µM | [47] 59.6 µM | [48] > 100 µM | [49] > 100 µM | [50] 24.3 µM | [51] 37.8 µM | [52] > 100 µM | [53] 1.33 µM | [54] > 100 µM | [55] 66.1 µM | [56] > 100 µM | [57] > 100 µM | [58] 70.8 µM
39.9 µM: [13]
